US20240059703A1 (AMGEN INC., priority 2021, published 2024)

biological target: KRAS G12C (Homo sapiens (Human), UniProt P01116, C118A/G12C); assay: 2 h coupled exchange assay; assay type: biochemical; conditions: Avg 2 h Coupled exchange IC50, 2 h compound pre-incubation
Protocol: The term “2 h coupled exchange assay” or “20 h coupled exchange assay” as used herein refers to the assay described in the Section entitled “BIOLOGICAL EVALUATION.”

KRAS G12C, sequence (P01116 other isoform, or with tags, fused parts or gaps G12C/C118A): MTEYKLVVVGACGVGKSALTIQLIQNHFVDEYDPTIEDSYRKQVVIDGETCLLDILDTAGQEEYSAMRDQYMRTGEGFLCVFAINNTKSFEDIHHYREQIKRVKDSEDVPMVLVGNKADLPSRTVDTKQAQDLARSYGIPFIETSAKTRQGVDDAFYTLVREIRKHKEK

IC50 [nM]	Compound
776	C=CC(=O)N1CC2(CCN(c3nc4c(c(-c5ccc(F)c(O)c5)c3C#N)C[C@H]3C[C@@H]4C3(C)C)C2)C1 [Example 14-49, (1R,9R)-6-(4-fluoro-3-hydroxyphenyl)-10,10-dimethyl-4-(2-(2-propenoyl)-2,6-diazaspiro[3.4]octan-6-yl)-3-azatricyclo[7.1.1.0^2,7]undeca-2,4,6-triene-5-carbonitrile]
570	C=CC(=O)N1CC2(CCN(c3nc4cc(-c5ocnc5C)ccc4c(-c4ccccc4F)c3C#N)C2)C1 [Example 17-10, 4-(2-fluorophenyl)-7-(4-methyl-1,3-oxazol-5-yl)-2-(2-(2-propenoyl)-2,6-diazaspiro[3.4]octan-6-yl)-3-quinolinecarbonitrile]
349	C=CC(=O)N1CC2(CCN(c3nc4c(c(-c5c(C)ccc6cn[nH]c56)c3F)COC(C)(C)C4)C2)C1 [Example 14-54, 1-(6-(3-fluoro-7,7-dimethyl-4-(6-methyl-1H-indazol-7-yl)-7,8-dihydro-5H-pyrano[4,3-b]pyridin-2-yl)-2,6-diazaspiro[3.4]octan-2-yl)-2-propen-1-one]
478	C=CC(=O)N1CC2(CCN(c3nc4c(c(-c5c(C)ccc6cnn(C)c56)c3C)COC(C)(C)C4)C2)C1 [Example 14-37, 1-(6-(4-(1,6-dimethyl-1H-indazol-7-yl)-3,7,7-trimethyl-7,8-dihydro-5H-pyrano[4,3-b]pyridin-2-yl)-2,6-diazaspiro[3.4]octan-2-yl)-2-propen-1-one]
215	C=CC(=O)N1CC2(CCN(c3nc4c(c(-c5cc(O)ccc5C)c3C)COC(C)(C)C4)C2)C1 [Example 14-30, 1-(6-(4-(5-hydroxy-2-methylphenyl)-3,7,7-trimethyl-7,8-dihydro-5H-pyrano[4,3-b]pyridin-2-yl)-2,6-diazaspiro[3.4]octan-2-yl)-2-propen-1-one]
779	C=CC(=O)N1CC2(CCN(c3nc4cc(-n5ccnc5C)ccc4c(-c4ccccc4Cl)c3C)[C@H]2C)C1 (single isomer, unassigned) [Example 15-5]
640	C=CC(=O)N1CC2(CCN(c3nc4c(c(-c5cccc6cc(O)ccc56)c3F)COC(C)(C)C4)C2)C1 (single isomer, unassigned) [Example 14-67, (M)-1-(6-(3-fluoro-4-(6-hydroxy-1-naphthalenyl)-7,7-dimethyl-7,8-dihydro-5H-pyrano[4,3-b]pyridin-2-yl)-2,6-diazaspiro[3.4]octan-2-yl)-2-propen-1-one]
506	C=CC(=O)N1CC2(CCN(c3nc4c(c(-c5cccc6c5cnn6C)c3C#N)C[C@H]3C[C@@H]4C3(C)C)C2)C1 [Example 14-24, (1R,9R)-10,10-dimethyl-6-(1-methyl-1H-indazol-4-yl)-4-(2-(2-propenoyl)-2,6-diazaspiro[3.4]octan-6-yl)-3-azatricyclo[7.1.1.0^2,7]undeca-2,4,6-triene-5-carbonitrile]
367	C=CC(=O)N1CC2(CCN(c3nc4c(c(-c5cccc6cc(O)ccc56)c3F)COC(C)(C)C4)C2)C1 [Example 14-65, 1-(6-(3-fluoro-4-(6-hydroxy-1-naphthalenyl)-7,7-dimethyl-7,8-dihydro-5H-pyrano[4,3-b]pyridin-2-yl)-2,6-diazaspiro[3.4]octan-2-yl)-2-propen-1-one]
5620	C=CC(=O)N1CC2(CCN(c3nc4c(c(-c5cc(O)cc6ccccc56)c3C)COC(C)(C)C4)C2)C1 (single isomer, unassigned) [Example 14-35, (P)-1-(6-(4-(3-hydroxy-1-naphthalenyl)-3,7,7-trimethyl-7,8-dihydro-5H-pyrano[4,3-b]pyridin-2-yl)-2,6-diazaspiro[3.4]octan-2-yl)-2-propen-1-one]

same assay, conditions: Avg 2 h Coupled exchange IC50, 2 h compound pre-incubation, SOS-mediated nucleotide exchange

IC50 [nM]	Compound
422	C=CC(=O)N1CC2(CCN(c3nc4c(c(-c5cc(O)ccc5C)c3C#N)[C@H]3CC[C@@H]4C3)C2)C1 (single isomer, unassigned) [Example 14-12]
108	C=CC(=O)N1CC2(CCN(c3nc4c(c(-c5cc(O)ccc5C)c3C#N)[C@H]3CC[C@@H]4C3)C2)C1 (single isomer, unassigned) [Example 14-14]

More lines, now with the values behind:

Compound	IC50 [nM]
C=CC(=O)N1CC2(CCN(c3nc4c(c(-c5ncc(Cl)c6ccccc56)c3C#N)COC(C)(C)C4)C2)C1 [Example 12-30, 4-(4-chloro-1-isoquinolinyl)-7,7-dimethyl-2-(2-(2-propenoyl)-2,6-diazaspiro[3.4]octan-6-yl)-7,8-dihydro-5H-pyrano[4,3-b]pyridine-3-carbonitrile]	438
C=CC(=O)N1CC2(CCN(c3nc4c(c(-c5c(C)ccc6cnn(C)c56)c3C#N)COC(C3CC3)C4)C2)C1 [Example 13-111, (7R)-7-cyclopropyl-4-(1,6-dimethyl-1H-indazol-7-yl)-2-(2-(2-propenoyl)-2,6-diazaspiro[3.4]octan-6-yl)-7,8-dihydro-5H-pyrano[4,3-b]pyridine-3-carbonitrile|(7S)-7-cyclopropyl-4-(1,6-dimethyl-1H-indazol-7-yl)-2-(2-(2-propenoyl)-2,6-diazaspiro[3.4]octan-6-yl)-7,8-dihydro-5H-pyrano[4,3-b]pyridine-3-carbonitrile]	294
C=CC(=O)N1CC2(CCN(c3nc4c(c(-c5c(O)ccc6ccccc56)c3C#N)C[C@H]3C[C@@H]4C3)C2)C1 (single isomer, unassigned) [Example 13-37]	31700
C=CC(=O)N1CC2(CCN(c3nc4ccccc4c(-c4c(C)ccc5[nH]nc(Cl)c45)c3C#N)C2)C1 [Example 14-3, 4-(3-chloro-5-methyl-1H-indazol-4-yl)-2-(2-(2-propenoyl)-2,6-diazaspiro[3.4]octan-6-yl)-3-quinolinecarbonitrile]	588
C=CC(=O)N1CC2(CCN(c3nc4c(c(-c5cccc6ccn(C)c56)c3C#N)COC(C)(C)C4)C2)C1 [Example 2-30, 7,7-dimethyl-4-(1-methyl-1H-indol-7-yl)-2-(2-(2-propenoyl)-2,6-diazaspiro[3.4]octan-6-yl)-7,8-dihydro-5H-pyrano[4,3-b]pyridine-3-carbonitrile]	750
C=CC(=O)N1CC2(CCN(c3nc4c(c(-c5cc(O)cc6cccnc56)c3C#N)C[C@H]3C[C@@H]4C3(C)C)C2)C1 [Example 2-43, (1R,9R)-6-(6-hydroxy-8-quinolinyl)-10,10-dimethyl-4-(2-(2-propenoyl)-2,6-diazaspiro[3,4]octan-6-yl)-3-azatricyclo[7.1.1.0^2,7]undeca-2,4,6-triene-5-carbonitrile]	193
C=CC(=O)N1CC2(CCN(c3nc4c(c(-c5cc(CO)ccc5Cl)c3C#N)C[C@H]3C[C@@H]4C3(C)C)C2)C1 [Example 2-65, (1R,9R)-6-(2-chloro-5-(hydroxymethyl)phenyl)-10,10-dimethyl-4-(2-(2-propenoyl)-2,6-diazaspiro[3.4]octan-6-yl)-3-azatricyclo[7.1.1.0^2,7]undeca-2,4,6-triene-5-carbonitrile]	735
C=CC(=O)N1CC2(CCN(c3nc4c(c(-c5c(C)ccc6[nH]ncc56)c3C#N)CCC4(F)F)C2)C1 [Example 13-58, 7,7-difluoro-4-(5-methyl-1H-indazol-4-yl)-2-(2-(2-propenoyl)-2,6-diazaspiro[3.4]octan-6-yl)-6,7-dihydro-5H-cyclopenta[b]pyridine-3-carbonitrile]	514
C=CC(=O)N1CC2(CCN(c3cc4c(c(-c5c(C)ccc6cnn(C)c56)c3Cl)OCCC4)C2)C1 [Example 2-102, 1-(6-(7-chloro-8-(1,6-dimethyl-1H-indazol-7-yl)-3,4-dihydro-2H-chromen-6-yl)-2,6-diazaspiro[3.4]octan-2-yl)-2-propen-1-one]	70
C=CC(=O)N1CC2(CCN(c3nc4c(c(-c5c(O)cccc5Cl)c3C#N)C[C@H]3C[C@@H]4C3)C2)C1 (single isomer, unassigned) [Example 13-66]	76000
C=CC(=O)N1CC2(CCN(c3nc4c(c(-c5c(C)ccc6cnn(C)c56)c3C#N)COC(C)(C)C4)C2(C)C)C1 [Example 13-48, 4-(1,6-dimethyl-1H-indazol-7-yl)-2-(5,5-dimethyl-2-(2-propenoyl)-2,6-diazaspiro[3.4]octan-6-yl)-7,7-dimethyl-7,8-dihydro-5H-pyrano[4,3-b]pyridine-3-carbonitrile]	664
C=CC(=O)N1CC2(CCN(c3nc4c(c(-c5c(C)ccc6cnn(C)c56)c3C#N)COC4(C)C)C2)C1 (single isomer, unassigned) [Example 13-57, (M)-4-(1,6-dimethyl-1H-indazol-7-yl)-7,7-dimethyl-2-(2-(2-propenoyl)-2,6-diazaspiro[3.4]octan-6-yl)-5,7-dihydrofuro[3,4-b]pridine-3-carbonitrile]	361
C=CC(=O)N1CC2(CCN(c3nc4c(c(-c5c(C)c(Cl)cc6cnn(C)c56)c3C)CCN(C(C)C)C4)C2)C1 (single isomer, unassigned) [Example 12-23, (P)-1-(6-(4-(5-chloro-1,6-dimethyl-1H-indazol-7-yl)-3-methyl-7-(2-propanyl)-5,6,7,8-tetrahydro-1,7-naphthyridin-2-yl)-2,6-diazaspiro[3.4]octan-2-yl)-2-propen-1-one]	18700
C=CC(=O)N1CC2(CCN(c3nc4c(c(-c5ccc(Cl)c6ccn(C)c56)c3C#N)COC(C)(C)C4)C2)C1 [Example 12-5, 4-(4-chloro-1-methyl-1H-indol-7-yl)-7,7-dimethyl-2-(2-(2-propenoyl)-2,6-diazaspiro[3.4]octan-6-yl)-7,8-dihydro-5H-pyrano[4,3-b]pyridine-3-carbonitrile]	463
C=CC(=O)N1CC2(CCN(c3nc4c(c(-c5c(O)ccc6ccccc56)c3C#N)C[C@H]3C[C@@H]4C3)C2)C1 (single isomer, unassigned) [Example 13-36]	991
C=CC(=O)N1CC2(CCN(c3nc4c(c(-c5c(C)ccc6[nH]ncc56)c3C#N)[C@@H]3CC[C@H]4C3)C2)C1 (single isomer, unassigned) [Example 14-6]	1420
